Patent publication US20190343874A1, “USE OF NICKEL COMPLEX IN PREPARING DRUG FOR RELIEVING INFLAMMATION” (NATIONAL TAIWAN NORMAL UNIVERSITY, priority 2018, published 2019)

Legend:
adult female Wistar rats = assay: metabolic cage sample data; assay type: in vivo
Procedure: (§1) In the current embodiment, 24 adult female Wistar rats were adopted as the experimental animals in the animal experiments and were randomly divided into four groups to be treated with different intraperitoneal injections. Referring to Table 1, the four groups are as follows: 1) the control group: 1 mL/day saline solution for 4 weeks; 2) the first experimental group: PPD (60 […]) for 4 weeks; 3) the second group: PPD ([…]) for 4 weeks and a drug (1.5 mg/kg/day) prepared from WCT003 for the last 2 weeks of; 4) the third experimental group: PPD (60 μg/kg/day) for 4 weeks and a drug (1.5 mg/kg/day) prepared from WCT006 for the last 2 weeks.
Referring to Table 2, which lists the sample data collected from the rats of the control group and the first experimental group where were placed in the metabolic cage: […]

reactive oxygen species = assay: luminol and lucigenin chemiluminescence of blood or urine samples (in vitro); design: species or system Wistar rats; conditions: PPD i.p. for 4 weeks
Procedure: To determine the effect of the drug prepared from the nickel complex WCt003 and WCt006 on eliminating reactive oxygen species, a luminol and lucigenin chemiluminescence (CL) method was utilized. The method includes the following steps: 0.2 ml sample of blood or urine was mixed with 0.5 ml of 1 mmol/L lucigenin or 0.2 mmol/L luminol, and then the mixture was analyzed with a chemiluminescence analysis system, wherein, the recorded signals were corresponding to the hydrogen peroxide (H2O2) and hypochlorous acid (HOCl) count in the luminol method, while the recorded signals were corresponding to the superoxide anion (O2^−) count in the lucigenin method.

[1] = test system: reactive oxygen species in the bladder cells; assay: reactive oxygen species count in the bladder (in vivo); design: species or system Wistar rats; conditions: PPD alone i.p. for 4 weeks, FIG. 9 and 10
Procedure: as §1
FIG. 10 show the analytical data of the reactive oxygen species count in vivo for each group of rats. It could be seen from FIG. 9 and FIG. 10 that the reactive oxygen species count in the bladder cells of the first experimental group of rats is much higher than that of the control group.

[2] = test system: bladder of adult female Wistar rats; assay: intravesical pressure measurement in para-phenylenediamine-treated rats; assay type: in vivo
Procedure: as §1
Then, each group of the rats were anesthetized with urethane (1.2 g/kg) via percutaneously injection, and a catheter was placed in a left femoral artery of each of the rats to measure arterial pressure (ABP). Meanwhile, intravesical pressure of the rats were also measured to obtain the parameters such as bladder intercontraction interval (ICI), urination time (MT), maximum urination pressure (MVP), contraction amplitude (A=MVP-BP), urination pressure threshold (PT), etc., as shown in FIG. 3 to FIG. 5.

[3] = test system: bladder tissue of adult female Wistar rats; assay: bladder tissue slices and perfusion unit after para-phenylenediamine; assay type: in vivo; conditions: PPD i.p. for 4 weeks vs control group
Procedure: as §1
It could be known from the experiment data that para-phenylenediamine induces inflammatory response and ischemia in the bladders of the rats in the first experimental group.

[4] = first experimental group: PPD i.p. for 4 weeks
[5] = first experimental group: PPD alone i.p. for 4 weeks

Nc1ccc(N)cc1 [para-phenylenediamine]
stool vs control group (adult female Wistar rats; PPD i.p. for 4 weeks, in words): more
urinary frequency vs control group (adult female Wistar rats; PPD i.p. for 4 weeks, in words): more frequent
urine vs control group (adult female Wistar rats; PPD i.p. for 4 weeks, in words): more
Body Weight (adult female Wistar rats; [4]): 277.8 ± 3.8 g
Food (adult female Wistar rats; [4]): 22.9 ± 4.4 g
Stool (adult female Wistar rats; [4]): 35.7 ± 8.1 g
Urinary frequency (24 hours) (adult female Wistar rats; [4]): 53.1 ± 13.3
Urine (adult female Wistar rats; [4]): 32.7 ± 7.5 mg
Water intake (adult female Wistar rats; [4]): 57.7 ± 7.2 mL
O2− count in the blood sample vs control group (reactive oxygen species; blood, lucigenin, FIG. 8): higher
H2O2 and HOCl counts in the blood sample vs control group (reactive oxygen species; blood, luminol, FIG. 8): significantly higher
reactive oxygen species count in urine samples vs control group (reactive oxygen species; urine, FIG. 7): no significant difference
reactive oxygen species count in the bladder cells vs control group [1]: much higher
bladder intercontraction interval vs control group ([2]; PPD i.p., in words, Table 3 and FIG. 6): significantly shorter
A (contraction amplitude) [2, 5]: 20.3 ± 0.9 mmHg
ICI (bladder intercontraction interval) [2, 5]: 35.8 ± 6.0 s
MVP (maximum urination pressure) [2, 5]: 30.6 ± 0.9 mmHg
mast cell in the bladder ([3]; FIG. 1): significant increase
neutrophil infiltration in the bladder tissue ([3]; FIG. 1): have neutrophil infiltration in the bladder tissue
perfusion unit ([3]; FIG. 2): reduced
